Data taken from ChEMBL document CHEMBL3217451, “Structure-based optimization of the piperazino-containing 1,3-disubstituted ureas affording sub-nanomolar inhibitors of soluble epoxide hydrolase” (Medchemcomm, 2012).
In brackets after ≈: the same amount, converted by molar mass.

How the values were obtained:
[1] = molecular target: T1, Bifunctional epoxide hydrolase 2 (Homo sapiens, UniProt P34913); test: Inhibition of human recombinant soluble epoxide hydrolase using cyano(6-methoxy-naphthalen-2-yl)methyl-trans-[(3-phenyloxiran-2-yl)methyl]carbonate as substrate after 5 mins by fluorescence assay
T1 sequence (P34913 whole entry): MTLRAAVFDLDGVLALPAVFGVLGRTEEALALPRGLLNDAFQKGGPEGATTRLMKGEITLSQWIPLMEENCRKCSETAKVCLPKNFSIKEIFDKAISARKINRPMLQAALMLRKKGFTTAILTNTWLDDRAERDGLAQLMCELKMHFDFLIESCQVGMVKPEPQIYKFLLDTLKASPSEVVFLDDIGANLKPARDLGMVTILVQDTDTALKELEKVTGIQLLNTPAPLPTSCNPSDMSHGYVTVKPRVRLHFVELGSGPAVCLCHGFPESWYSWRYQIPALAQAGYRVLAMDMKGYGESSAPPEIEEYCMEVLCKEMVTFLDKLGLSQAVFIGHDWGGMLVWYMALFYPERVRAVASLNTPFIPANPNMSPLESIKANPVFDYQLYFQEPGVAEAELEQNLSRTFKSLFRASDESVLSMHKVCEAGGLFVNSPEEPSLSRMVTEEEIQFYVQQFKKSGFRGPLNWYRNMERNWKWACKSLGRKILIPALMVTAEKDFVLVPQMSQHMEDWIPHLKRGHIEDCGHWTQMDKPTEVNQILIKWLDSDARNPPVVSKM

[2] = Solubility of the compound in sodium phosphate buffer at pH 7.4 at 25 +/- 1 degC; assay type: physicochemical
[3] = molecular target: T1, Bifunctional epoxide hydrolase 2; test: Inhibition of soluble epoxide hydrolase (unknown origin)

SMILES	IC50 [1] [nM]	solubility [2] [µg/mL]	IC50 [3] [nM]
CC(=O)N1CCN(CCCOc2ccc(NC(=O)NC34CC5CC(CC(C5)C3)C4)c3cccnc23)CC1	142	130 (≈ 257 µM)	–
O=C(NCC[C@H]1CN[C@@H](Cc2ccccc2)CN1)NC12CC3CC(CC(C3)C1)C2	–	–	1370
CN1CCN(C(=O)NC23CC4CC(CC(C4)C2)C3)CC1	63.7	–	–
O=C(NC1CCN(C(=O)CCC(=O)N2CCNCC2)CC1)NC12CC3CC(CC(C3)C1)C2	77.3	8000 (≈ 18000 µM)	–
O=C(NC12CC3CC(CC(C3)C1)C2)N1CCNCC1	100000	–	–
CC(=O)N1CCN(C(=O)CCC(=O)N2CCC(NC(=O)NC34CC5CC(CC(C5)C3)C4)CC2)CC1	44.7	–	–
O=C(Nc1cccc(C(=O)N2CCNCC2)c1)NC12CC3CC(CC(C3)C1)C2	133	1150 (≈ 3010 µM)	–
CC(C)(C)OC(=O)N1CCN(C(=O)NC23CC4CC(CC(C4)C2)C3)CC1	490	–	–
CC(=O)N1CCN(C(=O)NC23CC4CC(CC(C4)C2)C3)CC1	321	–	–
CC(C)(C)OC(=O)N1CCN(C(=O)CCC(=O)N2CCC(NC(=O)NC34CC5CC(CC(C5)C3)C4)CC2)CC1	18.8	470 (≈ 861 µM)	–
O=C(Nc1ccc(C(=O)N2CCNCC2)cc1)NC12CC3CC(CC(C3)C1)C2	67.1	1960 (≈ 5120 µM)	–
CS(=O)(=O)N1CCN(C(=O)c2cccc(NC(=O)NC34CC5CC(CC(C5)C3)C4)c2)CC1	41.8	130 (≈ 282 µM)	–
CC(=O)N1CCN(C(=O)c2cccc(NC(=O)NC34CC5CC(CC(C5)C3)C4)c2)CC1	46.3	890 (≈ 2100 µM)	–

Other lines, results leading:

IC50 [1] [nM]	solubility [2] [µg/mL]	IC50 [3] [nM]	SMILES
1	860 (≈ 1870 µM)	–	CS(=O)(=O)N1CCN(C(=O)c2ccc(NC(=O)NC34CC5CC(CC(C5)C3)C4)cc2)CC1
6.8	150 (≈ 266 µM)	–	CC(C)(C)OC(=O)N1CCN(CCCOc2ccc(NC(=O)NC34CC5CC(CC(C5)C3)C4)c3cccnc23)CC1
7.3	210 (≈ 435 µM)	–	CC(C)(C)OC(=O)N1CCN(C(=O)c2cccc(NC(=O)NC34CC5CC(CC(C5)C3)C4)c2)CC1
0.6	160 (≈ 342 µM)	–	CC(=O)N1CCN(CCCCOc2cccc(NC(=O)CC34CC5CC(CC(C5)C3)C4)c2)CC1
0.4	180 (≈ 342 µM)	–	CC(C)(C)OC(=O)N1CCN(CCCCOc2cccc(NC(=O)CC34CC5CC(CC(C5)C3)C4)c2)CC1
0.5	500 (≈ 1040 µM)	–	CC(C)(C)OC(=O)N1CCN(C(=O)c2ccc(NC(=O)NC34CC5CC(CC(C5)C3)C4)cc2)CC1
0.5	170 (≈ 337 µM)	–	CS(=O)(=O)N1CCN(CCCCOc2cccc(NC(=O)CC34CC5CC(CC(C5)C3)C4)c2)CC1
9	530 (≈ 1250 µM)	–	CC(=O)N1CCN(C(=O)c2ccc(NC(=O)NC34CC5CC(CC(C5)C3)C4)cc2)CC1
